Experimental findings from US9232796B2, “Herbicidal compositions comprising 4-amino-3-chloro-5-fluoro-6-(4-chloro-2-fluoro-3-methoxyphenyl) pyridine-2-carboxylic acid or a derivative thereof and acetyl-CoA carboxylase (ACCase) inhibitors” (DOW AGROSCIENCES LLC, priority 2012, dated 2016) are described below.

For one assay, the system named is ECHCO. The assay is described as follows: Example V (second) postemergence foliar-applied ternary mixtures, greenhouse, direct seeded rice weeds. In kind it is in vivo, Echinochloa colona (L.) Link. As to the method:
(§1) The treated plants and control plants were placed in a greenhouse as described above and watered by sub-irrigation to prevent wash-off of the test compounds. After approximately 3 weeks, the condition of the test plants as compared with that of the untreated plants was determined visually and scored on a scale of 0 to 100 percent where 0 corresponds to no injury or growth inhibition and 100 corresponds to complete kill.
(§2) Colby's equation was used to determine the herbicidal effects expected from the mixtures (Colby, S. R. 1967. Calculation of the synergistic and antagonistic response of herbicide combinations. Weeds 15:20-22.).
(§3) The following equation was used to calculate the expected activity of mixtures containing three active ingredients, A, B, and C: Expected=A+B+C−((A×B+A×C+B×C)/100)+(A×B×C/10000)

The next assay concerns FIMMI. In words: Example V post-emergence field trials in direct-seeded rice. Type of assay: in vivo, Fimbristylis miliacea. The note with it: foliar, field trial Tolima, Colombia. As for the experimental part:
(§4) Multiple field trials were conducted under commercial grower field conditions in Tolima, Colombia; Thessaloniki, Greece; Bianze and Copiano, Italy; and Humphrey, Ark., USA. Trials sites were located in commercially grown fields of direct-seeded rice (Oryza sativa) using standard herbicide small plot research methodology. Plots varied from 2 to 3 meter (m)×5 to 8 m (width×length) with 4 replicates per treatment. The rice crop was grown using normal cultural practices for fertilization, seeding, watering, flooding and maintenance to ensure good growth of the crop and the weeds.
(§5) All treatments in the field trials were applied using a backpack compressed air/gas sprayer with flat fan nozzles (80° or 110°) calibrated to apply 187 to 300 L/ha spray volume at approximately 200-400 kPa nozzle pressure. Commercially available products of cyhalofop-butyl (Clincher 180EC, Clincher 200EC, and Clincher SF (285 gr ai/L EC)) were mixed in water at appropriate formulated product rates to achieve the desired rates based on a unit area of application (hectare) to achieve the desired rates as shown. Treatments were rate at 19 to 58 days after application (DAA) as compared to the untreated control plants. Visual weed control was scored on a scale of 0 to 100 percent where 0 corresponds to no injury and 100 corresponds to complete kill. […]

A further assay has as its system SCPMU. The assay is described as above. In kind it is in vivo, Schoenoplectus mucronatus. The note with it: foliar, field trial Italy. As to the method:
as §4, §5

Another assay has as its system IPOHE. The assay is described as follows: Example V (second) postemergence foliar-applied ternary mixtures, greenhouse, direct seeded rice weeds. Type of assay: in vivo, Ipomoea hederacea Jacq. As for the experimental part:
as §1, §2, §3

In a further assay the test system is CYPIR. The assay is described as follows: Example I postemergence foliar-applied, greenhouse, direct seeded rice weeds. In kind it is in vivo, Cyperus iria L. An outline of the steps: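 Weeds grown in loam/sandy loam–calcareous grit (80:20) under greenhouse conditions (~14 h photoperiod, ~29/26 °C day/night) and treated at first to fourth true leaf stage. Compound A (acid or esters, SC) and ACCase-inhibiting herbicides, alone and combined, sprayed at 187 L/ha with 1.25% v/v crop oil concentrate. Injury rated visually (0–100%) after ~3 weeks; expected mixture effects by Colby's equation.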

Values joined by “and” are separate entries in the source; they are usually repeats but may differ in a detail not shown here. Equal entries are not always repeated.

With `CCCCOC(=O)[C@@H](C)Oc1ccc(Oc2ccc(C#N)cc2F)cc1` [Cyhalofop-butyl, butyl(2R)-2-[4-(4-cyano-2-fluorophenoxy)phenoxy]propanoate, reference compound], the “Visual Weed Control (%) - 21 DAA ECHCO Obs” value in the assay on ECHCO (35 gai/ha) is 37% and 40%. Moreover, the “Visual Weed Control (%) - 19 DAA FIMMI Obs” value in the assay on FIMMI (190 gai/ha) turned out to be 16%. For the same compound, in the assay with SCPMU (300 gai/ha), the “Visual Weed Control (%) - 55-58 DAA SCPMU Obs” value was 6%. Besides, the “Visual Weed Control (%) - 21 DAA IPOHE Obs” value stood at 0% in the assay with IPOHE (17.5 gai/ha); 0% in the assay with IPOHE (35 gai/ha); 0% in the assay on IPOHE (35 gai/ha, lower sub-table); 0% in the assay on IPOHE (35 gai/ha, upper sub-table).

For `COc1c(Cl)ccc(-c2nc(C(=O)O)c(Cl)c(N)c2F)c1F` [Compound A Acid, 4-amino-3-chloro-6-(4-chloro-2-fluoro-3-methoxyphenyl)-5-fluoropyridine-2-carboxylic acid], the “Visual Weed Control (%) - 22 DAA CYPIR Obs” value with CYPIR (4.38 gae/ha) came to 15%.

On to `COc1c(Cl)ccc(-c2nc(C(=O)OCc3ccccc3)c(Cl)c(N)c2F)c1F` [Compound A Benzyl Ester, benzyl ester of 4-amino-3-chloro-5-fluoro-6-(4-chloro-2-fluoro-3-methoxy-phenyl)pyridine-2-carboxylic acid], for which the “Visual Weed Control (%) - 20 DAA CYPIR Obs” value in the assay on CYPIR (4.38 gae/ha) is listed as 15%; with CYPIR (8.75 gae/ha), 35%. For the same compound, the “Visual Weed Control (%) - 22 DAA CYPIR Obs” value with CYPIR (8 gae/ha) is reported as 20%; in the assay with CYPIR (16 gae/ha), 85%; in the assay on CYPIR (32 gae/ha) it was 100%. Also, the “Visual Weed Control (%) - 21 DAA ECHCO Obs” value with ECHCO (2.19 gae/ha) is given as 10%; in the assay with ECHCO (4.38 gae/ha), 25%; in the assay with ECHCO (8 gae/ha), 45%. Further, in the assay on FIMMI (24 gae/ha), the “Visual Weed Control (%) - 19 DAA FIMMI Obs” value is given as 39%. In addition, the “Visual Weed Control (%) - 55-58 DAA SCPMU Obs” value in the assay with SCPMU (24 gae/ha) came to 27%. The “Visual Weed Control (%) - 21 DAA IPOHE Obs” value in the assay with IPOHE (2.19 gae/ha, upper sub-table) was 30%; with IPOHE (4.38 gae/ha, upper sub-table), 38%; in the assay on IPOHE (8 ae/ha), 20%; with IPOHE (8 gae/ha) it was 10%; in the assay with IPOHE (8 gae/ha, lower sub-table), 15%; with IPOHE (16 gae/ha), 30%. Also, the “Visual Weed Control (%) - 21 DAA IPOHE Obs” value with IPOHE (16 gae/ha, lower sub-table) was 33%.
